Data as given in paper PMC8311653, “Design, Synthesis, In Vitro and In Vivo Characterization of Selective NKCC1 Inhibitors for the Treatment of Core Symptoms in Down Syndrome” (Journal of Medicinal Chemistry, 2021).
Converted amounts (≈) assume the structure as drawn.

Columns and labels:
[1] = biological target: T1, NKCC1 (Homo sapiens, UniProt P55011); experiment: Cl- influx assay in NKCC1-transfected HEK293 cells; type: cell-based; conditions: for Inhibition 10 μM Cl- influx (%) / Inhibition 100 μM Cl- influx (%): NKCC1-transfected HEK293 cells; for inhibition at 100 µM: HEK293, read-out: Inhibition 100 μM Cl- influx (%); for inhibition at 10 µM: HEK293, read-out: Inhibition 10 μM Cl- influx (%)
T1 construct: host or cells: HEK293
T1 sequence (P55011 1-1212): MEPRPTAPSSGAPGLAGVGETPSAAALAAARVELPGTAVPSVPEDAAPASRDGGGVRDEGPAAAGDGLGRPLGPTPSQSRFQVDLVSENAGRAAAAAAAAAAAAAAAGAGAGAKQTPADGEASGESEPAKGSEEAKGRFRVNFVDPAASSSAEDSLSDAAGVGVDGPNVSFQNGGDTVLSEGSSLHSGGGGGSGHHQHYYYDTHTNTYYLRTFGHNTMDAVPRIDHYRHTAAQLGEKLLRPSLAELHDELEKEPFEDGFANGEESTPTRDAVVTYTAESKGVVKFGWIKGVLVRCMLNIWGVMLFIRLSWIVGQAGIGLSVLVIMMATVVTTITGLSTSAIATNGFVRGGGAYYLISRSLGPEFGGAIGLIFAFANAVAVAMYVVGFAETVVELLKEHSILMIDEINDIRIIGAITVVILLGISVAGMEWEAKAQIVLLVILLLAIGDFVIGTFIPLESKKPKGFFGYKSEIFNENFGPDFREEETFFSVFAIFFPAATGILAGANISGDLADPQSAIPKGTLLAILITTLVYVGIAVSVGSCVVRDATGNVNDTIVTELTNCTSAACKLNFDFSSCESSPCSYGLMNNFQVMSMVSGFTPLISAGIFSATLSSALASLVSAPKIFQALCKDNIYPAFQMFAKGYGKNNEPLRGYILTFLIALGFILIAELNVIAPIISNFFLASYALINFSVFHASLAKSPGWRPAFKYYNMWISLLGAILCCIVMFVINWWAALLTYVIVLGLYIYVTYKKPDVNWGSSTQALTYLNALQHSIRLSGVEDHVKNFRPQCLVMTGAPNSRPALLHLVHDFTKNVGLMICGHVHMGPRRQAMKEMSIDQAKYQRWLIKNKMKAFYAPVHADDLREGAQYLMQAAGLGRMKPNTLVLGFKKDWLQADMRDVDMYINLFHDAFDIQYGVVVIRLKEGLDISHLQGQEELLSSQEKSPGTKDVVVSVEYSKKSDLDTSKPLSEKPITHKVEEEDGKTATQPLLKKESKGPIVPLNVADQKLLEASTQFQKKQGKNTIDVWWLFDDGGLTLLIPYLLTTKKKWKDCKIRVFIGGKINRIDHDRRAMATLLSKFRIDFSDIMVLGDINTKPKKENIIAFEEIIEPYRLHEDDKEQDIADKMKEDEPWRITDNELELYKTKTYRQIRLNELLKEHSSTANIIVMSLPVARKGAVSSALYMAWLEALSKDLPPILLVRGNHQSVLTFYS
Procedure: HEK293 cells were cultured in Dulbecco’s modified Eagle’s medium (DMEM) supplemented with 10% fetal bovine serum, 1% L-glutamine, 100 U/mL penicillin, and 100 μg/mL streptomycin and maintained at 37 °C in a 5% CO2 humidified atmosphere. To assess NKCC1 and NKCC2 activity (Cl^– influx assay), 3 million HEK cells were plated in a 10 cm cell-culture dish and transfected with a transfection mixture comprising 5 mL of DMEM, 4 mL of Opti-MEM, 8 μg of DNA plasmid coding for NKCC1 (PRK-NKCC1 obtained from Medical Research Council and the University of Dundee), NKCC2 (OriGene plasmid #RC216145) subcloned in PRK5 plasmid, or mock control (empty vector), together with 8 μg of a plasmid coding for the Cl^–-sensitive variant of the membrane-targeted fluorescent protein YFP, mbYFPQS (Addgene plasmid #80742),[53] and 32 μL of Lipofectamin 2000. To assess KCC2 activity (Tl influx assay), cells were transfected with 8 μg of KCC2[54] subcloned in the PRK5 plasmid or mock control (empty vector) and 16 μL of Lipofectamin 2000. After 4 h, the cells were collected and plated in 96-well black-walled, clear-bottomed plates at a density of 2.5 × 10^4. After 48 h, cells were used for the Cl^– or Tl influx assays. All reagents were purchased from Life Technologies, unless otherwise specified.
Transfected cells were treated with 10 μM or 100 μM bumetanide (as positive controls), DMSO (as the negative control), or with each of our compounds in 100 μL/well of a Cl^–-free hypotonic solution (67.5 mM Na^+ gluconate, 2.5 mM K^+ gluconate, 15 mM HEPES pH 7.4, 50 mM glucose, 1 mM Na2HPO4, 1 mM NaH2PO4, 1 mM MgSO4, and 1 mM CaSO4). After 30 min of incubation, plates were loaded into a Victor 3V (PerkinElmer) multiplate reader equipped with an automatic liquid injector system, and fluorescence of Cl^–-sensitive mbYFPQS was recorded with excitation at 485 nm and emission at 535 nm. For each well, fluorescence was first recorded for 20 s of the baseline and for 60 s after delivery of a NaCl concentrated solution (74 mM final concentration in the assay well). Fluorescence of Cl^–-sensitive mbYFPQS is inversely correlated to the intracellular Cl^– concentration;[53] therefore, chloride influx into the cells determined a decrease in mbYFPQS fluorescence. To represent the fluorescent traces in time, we normalized the fluorescence value for each time point to the average of the fluorescence value of the first 20 s of the baseline (ΔF/F0). To quantify the average effects as represented by the bar plots, we expressed the decrease in fluorescence upon NaCl application as the average of the last 10 s of ΔF/F0 normalized traces. Moreover, for each experiment, to account for the contribution of Cl^– changes that were dependent on transporters/exchangers other than NKCC1 or NKCC2, we subtracted the value of the last 10 s of ΔF/F0 normalized traces obtained from mock-transfected cells (either control or treated) from the respective ΔF/F0 value obtained from the cells transfected with NKCC1 or NKCC2. We then presented in the figures all the data as a percentage of the fluorescence decrease versus the value of the control DMSO.

[2] = Aqueous kinetic solubility in PBS pH 7.4; type: physicochemical; conditions: phosphate buffered saline (PBS); aqueous kinetic solubility from 10 mM DMSO solution in PBS pH 7.4; target concentration 250 μM (final DMSO 2.5%)
Procedure: 1. Aqueous kinetic solubility.
30 µL aliquots of 10 mM DMSO stock solution of the test compound were incubated in Phosphate
Buffered Saline (PBS) at pH 7.4 at 25°C for 24h. After centrifugation the dissolved compound in the
supernatant was quantified by LC-MS/MS.
Aqueous kinetic solubility was determined by UV quantification at
215 nm. […]

[3] = In vitro metabolic stability in mouse liver microsomes; conditions: tissue homogenate, pH 7.4
Procedure: 1. Aqueous kinetic solubility. […]
3. In vitro mouse microsomial stability. […]
microsomes (Sekisui Xenotech, LCC), 0.1M Tris-HCl buffer (pH 7.4), and 10% DMSO. The final […]
After pre-incubation, the cofactors (NADPH, G6P, G6PDH, MgCl2 pre-dissolved in 0.1M Tris-HCl) were added to the incubation mixture and the incubation was continued at 37 °C for 1h. At each time point (0, 5, 15, 30, 60 min), 30µL of incubation mixture was diluted with 200 µL cold acetonitile spiked with 200 nM of warfarin as internal standard, followed by centrifugation at 3500 g for 30 min. The supernatant was further diluted with H2O (1:1) for analysis.
An aliquot of 200 µl of the supernatant was removed, and the concentration of the test compound was […]
quantified by LC-MS/MS. The percentage of the test compound remaining at each time point relative […]
to t=0 was calculated. The half-lives (t½) were determined by a one-phase decay equation using a […]
non-linear regression of compound concentration vs time.

Row | SMILES | Inhibition 10 μM Cl- influx (%) [1] | inhibition at 100 µM [1] [%] | solubility at 24 h [2] [µM] | half-life at 5 μM [3] [min] | Inhibition 100 μM Cl- influx (%) [1] | inhibition at 10 µM [1] [%]
1 | CCCCCCCCNc1ccc(C(=O)O)cc1S(N)(=O)=O [Compound 17, 4-(Octylamino)-3-sulfamoyl-benzoic Acid] | Inactive | 24 ± 8.5 | > 250 | 18 | – | –
2 | CCCCCCNc1ccc(C(=O)O)cc1S(=O)(=O)NC [Compound 20, 4-(Hexylamino)-3-(methylsulfamoyl)benzoic Acid] | Inactive | – | 247 (≈ 77.7 µg/mL) | 29 | Inactive | –
3 | CCCCCCCCNc1ccc(C(=O)O)cc1S(=O)(=O)NC [Compound 21, 3-(-N-Methylsulfamoyl)-4-(octylamino)benzoic Acid] | – | 20.1 ± 14.7 | 53 (≈ 18.2 µg/mL) | 12 | – | 16.2 ± 4.8
4 | CCCCCCNc1ccc(C(=O)O)cc1S(=O)(=O)N(C)C [Compound 24, 3-(-N,N-Dimethylsulfamoyl)-4-(hexylamino)benzoic Acid] | Inactive | 19.8 ± 5.2 | 243 (≈ 79.8 µg/mL) | 17 | – | –
5 | CCCCCCCCNc1ccc(C(=O)O)cc1S(=O)(=O)N(C)C [Compound 25, 3-(-N,N-Dimethylsulfamoyl)-4-(octylamino)benzoic Acid] | Inactive | 70.6 ± 9.2 | 52 (≈ 18.5 µg/mL) | 13 | – | –
6 | CN(C)S(=O)(=O)c1cc(C(=O)O)ccc1NCCC(C)(C)C [Compound 26, 4-(-N-3,3-Dimethylbutylamino)-3-(dimethylsulfamoyl)benzoic Acid] | Inactive | – | > 250 | > 60 | Inactive | –
7 | CN(C)S(=O)(=O)c1cc(C(=O)O)ccc1NCCCC(F)(F)F [Compound 27, 3-(-N,N-Dimethylsulfamoyl)-4-(4,4,4-trifluorobutylamino)benzoic Acid] | Inactive | 1.9 ± 5 | 245 (≈ 86.8 µg/mL) | > 60 | – | –
8 | CN(C)S(=O)(=O)c1cc(C(=O)O)ccc1NCCCCCC(F)(F)F [Compound 28, 3-(-N,N-Dimethylsulfamoyl)-4-(6,6,6-trifluorohexylamino)benzoic Acid] | Inactive | 12.6 ± 4.1 | 249 (≈ 95.2 µg/mL) | > 60 | – | –
9 | COCCNc1ccc(C(=O)O)cc1S(=O)(=O)N(C)C [Compound 29, 3-(-N,N-Dimethylsulfamoyl)-4-(2-methoxyethylamino)benzoic Acid] | – | 4.1 ± 5 | 237 (≈ 71.7 µg/mL) | > 60 | – | 1.4 ± 2.7
10 | COCCCCNc1ccc(C(=O)O)cc1S(=O)(=O)N(C)C [Compound 30, 3-(-N,N-Dimethylsulfamoyl)-4-(4-methoxybutylamino)benzoic Acid] | Inactive | 5.2 ± 3.7 | 247 (≈ 81.6 µg/mL) | > 60 | – | –
